Key:
[1] = in vivo; cited from earlier work
in vivo = details: for MTD at 10 days: female, SCID (HsdIcr:Ha (ICR)-Prkdc-scid), iv; for MTD at 10 days / Max. Mean Body Weight change during Rx (%): intravenously once each day for ten days; for Days of Deaths (s = surviving at study end): five mice listed singly; for Day of Max. Mean Body Weight Loss (body weight nadir) / % Rx Related Deaths: once each day for ten days
Procedure: The purpose of this study was to determine the maximum tolerated dose for pemetrexed (PMX), Compound 20a (from Example 1), Compound 20b (from Example 1), Compound 20c (from Example 1), and Compound 20d (from Example 1) in female SCID mice fed a low folate diet. All compounds were administered intravenously, once each day, for ten consecutive days.
Calculations were made to provide “dose equivalents” between PMX, Compound 20a, Compound 20b, Compound 20c and Compound 20d, which “dose equivalents” along with the “actual dose” administered are provided in Table 2. All dosagese in this example are expressed in terms of “dose equivalents” and adjustments were made for excipients, salts and hydration state.
Female SCID mice (HsdIcr:Ha (ICR)-Prkdc-scid) were obtained from Harlan. They were seven weeks old on Day 1 of the experiment. The mice in Groups 1 and 2 were fed irradiated Rodent Diet 5053 (LabDiet™). The mice in Groups 3 through 19 were fed irradiated Folic Acid Deficient Purina TestDiet supplemented with 1% succinylsufathiazol from 14 days prior to dosing until 14 days after dosing was completed, at which time the study was terminated and the mice were then euthanized. All groups received drinking water ad libitum. Mice were housed in static cages in clean rooms that provide H.E.P.A filtered air into the environment at 100 complete air changes per hour. All treatments, body weight determinations, and tumor measurements were carried out in the environment. The environment was controlled to a temperature range of 70°±2° F. and a humidity range of 30-70%. […] Mice found in obvious distress or in a moribund condition were euthanized. The study was carried out in an AAALAC accredited facility.
Treatments began on Day 1. […] Mice in Groups 3 through 19 were fed irradiated Folic Acid Deficient Purina TestDiet with 1% Succinylsufathiazol for 14 days prior to dosing as well as throughout the entire experiment. All mice were dosed according to individual body weight on the day of treatment (0.2 ml/20 g).
Mice were weighed on each day of treatment and at least three times weekly thereafter. Individual body weights were recorded three times weekly. […] In this report, a dosage level is described as tolerated if treatment-related weight loss (during and two weeks after treatment) is <20%. Upon death or euthanasia, all mice were necropsied to provide a general assessment of potential cause of death and perhaps target organs for toxicity.

[2] = Single dose maximum tolerated dose study; format: in vivo, mice; details: single intravenous dose
Procedure: Because of too much efficacy of daily dosing for ten days in a pilot xenograft study (likely due to the effects of repeated dosing), a single dose maximum tolerated dose study was conducted using a method similar to that provided in Example 3 in order to have a better dosing schedule for a comparative xenograft study.

xenograft = assay: In vivo xenograft study; set-up: species or system female athymic nu/nu mice; details: as of day 26; intravenously, at 80% and at 50% of the single dose maximum tolerated dose
Procedure: Briefly, for run of the experiment, a previously untreated group of 8-12 week old mice was intravenously administered a test article prepared in saline and diluted to appropriate concentrations to allow administration volumes of a maximum of 20 mL/kg. Each compound of interest was tested twice: once at 80% of the maximum tolerated dose and once at 50% of the maximum tolerated (maximum tolerated doses calculated on the single dose maximum tolerated dose study).
Mice were observed daily for clinical signs and body weights were recorded daily (except on weekend days) then biweekly until the end of study. Dosing was terminated for any group in which mean weight loss exceeded 20% or >10% of animals died. Moribund animals were euthanized.

[3] = low folate diet, 1 mg/kg/inj dose equivalents
[4] = low folate diet, 3.75 mg/kg/inj dose equivalents
[5] = low folate diet, dosage levels found tolerated
[6] = low folate diet, dosage levels found toxic
[7] = low folate diet, 15 mg/kg/inj dose equivalents
[8] = low folate diet, 60 mg/kg/inj dose equivalents

Nc1nc2[nH]cc(CCc3ccc(C(=O)N[C@@H](CCC(=O)O)C(=O)O)cc3)c2c(=O)[nH]1 [Pemetrexed, pemetrexed]
drug excreted unchanged in the urine [1]: 70-90%
half-life [1]: 3.5 h
MTD at 10 days (in vivo; mouse, in vivo, MTD (maximum tolerated dose), mice fed a folate deficient diet, dose equivalents): 1 mg/kg
MTD at 10 days (in vivo; mouse, in vivo, maximum tolerated dose, mice fed a conventional diet): < 250 mg/kg
maximum treatment-related body weight loss (in vivo; low folate diet, 1 mg/kg): 12.8%
Days of Deaths (s = surviving at study end) (in vivo; [3]): s, s, s, s, s
tolerability of the dosage level (in vivo; low folate diet, 1 mg/kg, tolerated if treatment-related weight loss <20%): tolerated
Days of Deaths (s = surviving at study end) (in vivo; [4]): s, s, s, s, s
tolerability of the dosage level (in vivo; low folate diet, 3.75 mg/kg, tolerated if treatment-related weight loss <20%): toxic
tolerability of the dosage level (in vivo; low folate diet, 15 mg/kg, tolerated if treatment-related weight loss <20%): toxic
tolerability of the dosage level (in vivo; low folate diet, 60 mg/kg, tolerated if treatment-related weight loss <20%): toxic
body weight nadir (Day) (in vivo; low folate diet, across 60, 15 and 3.75 mg/kg): 10-12
common clinical signs (in vivo; [5]): rough pelage
necropsy findings (in vivo; [5]): nothing significant
common clinical signs (in vivo; [6]): rough pelage and diarrhea
necropsy findings (in vivo; [6]): bloated, air-filled stomachs, pale livers, and necrotic intestines
Max. Mean Body Weight change during Rx (%) (in vivo; [3]): −12.8%
Max. Mean Body Weight change during Rx (%) (in vivo; [4]): −30.7%
Max. Mean Body Weight change during Rx (%) (in vivo; [7]): −38.4%
Max. Mean Body Weight change during Rx (%) (in vivo; [8]): −38.1%
Day of Max. Mean Body Weight Loss (body weight nadir) (in vivo; [3]): 12
% Rx Related Deaths (in vivo; low folate diet, 1 mg/kg/inj dose equivalents, 1 mg/kg): 0%
% Rx Related Deaths (in vivo; low folate diet, 1 mg/kg/inj dose equivalents, listed as PMX, 1 mg/kg): no treatment-related mortality
% Rx Related Deaths (in vivo; [4]): 0%
Day of Max. Mean Body Weight Loss (body weight nadir) (in vivo; [4]): 12
% Rx Related Deaths (in vivo; [7]): 40%
Day of Max. Mean Body Weight Loss (body weight nadir) (in vivo; [7]): 10
% Rx Related Deaths (in vivo; [8]): 100%
Day of Max. Mean Body Weight Loss (body weight nadir) (in vivo; [8]): 10
tolerability of the dosage level (in vivo; mouse, in vivo): toxic
Lethality (in vivo; normal diet, 500 mg/kg): 100%
MTD ([2]; mouse, in vivo, dose equivalents): 50 mg/kg
BWL (body weight loss) ([2]; tested dose (equiv) 50): −9.7%
day (of body weight loss) ([2]; tested dose (equiv) 50): 2
treatment-related deaths ([2]; tested dose (equiv) 50): 0
BWL (body weight loss) ([2]; tested dose (equiv) 80): −3.8%
day (of body weight loss) ([2]; tested dose (equiv) 80): 2
treatment-related deaths ([2]; tested dose (equiv) 80): 0
BWL (body weight loss) ([2]; tested dose (equiv) 120): −4.1%
day (of body weight loss) ([2]; tested dose (equiv) 120): 2
treatment-related deaths ([2]; tested dose (equiv) 120): 0
tumor volume compared with saline control (xenograft): significantly less tumor volume than saline control

Reference: patent publication US11612662B2, “Multi-arm polymeric prodrug conjugates of pemetrexed-based compounds” (priority 2010, dated 2023)
